Measurements published in US9090655B2, “Low hemolytic antimicrobial peptide, pharmaceutical composition and use thereof” (priority 2010, dated 2015).
Read-outs that look alike come from different tables or passages of the source. Where no end group is shown, it is not given here.

Columns and labels:
Type in all cases: cell-based
[1] = test system: human red blood cells (hRBC); assay: Hemolytic assay; details: for lysis percentage: hRBC 5% v/v, one hour at 37° C.
Method: Melittin, Pem-2252 L and Pem-2254 L were tested for hemolysis against human red blood cells (hRBC). […] The hRBCs with EDTA were rinsed 3 times with PBS (800×g, 10 min) and re-suspended in PBS. The hRBCs were diluted into 10% with phosphate-buffered saline and placed 50 μl into each eppendorf. The peptides dissolved in PBS were then added to 50 μl of 10% solution of hRBCs and incubated for an hour at 37° C. (final hRBC concentration, 5% v/v). The samples were centrifuged at 800 g for 10 min […]. Various concentrations of peptides were incubated with pretreated hRBC and the percentage of hemolysis determined (Percentage lysis, Zero hemolysis (blank) and 100% hemolysis were determined in PBS buffer and 1% Triton X-100). […] At 5 μg/ml, 50 μg/ml and 400 μg/ml, its lysis percentages were 0.45%, 1.52% and 16.35%, respectively.

[2] = test system: Staphylococcus aureus (ATCC 29213)
Method: (§1) The in vitro antimicrobial activities of antimicrobial agents were tested using minimum inhibition concentration (MIC) tests. The MIC value is the lowest concentration of peptide at which the visible growth of test organisms was inhibited and reduced. The test strains herein were E. coli (ATCC 25922), Pseudomonas aeruginosa (ATCC 27853) and Staphylococcus aureus (ATCC 29213).
(§2) Overnight cultures of the test organisms were diluted to produce an inoculum containing approximately 10^5 colonies in Meuller-Hinton broth (MHB). Peptide solution with different concentrations was added to diluted culture of the test organisms. After 18 hours of incubation at 37° C., the results were assayed for turbidity as an indicator of cell growth. MIC values for the peptides were measured three times at different time points. […] On the other hand, modifications for primary or secondary structures without influencing their activity, such as acetylation, amidation, formylation, hydroxylation, lipid modification, methylation or phosphorylation, were performed herein.

E. coli (ATCC 25922) = test system: E. coli (ATCC 25922)
Method: as §1, §2

[3] = test system: Pseudomonas aeruginosa (ATCC 27853)
Method: as §1, §2

[4] = test system: outer membrane of E. coli; assay: Outer membrane permeabilization, NPN uptake assay; details: intact E. coli cells, NPN fluorescence
Method: The outer membrane permeabilization activity of the peptide variants was determined by the 1-N-phenylnaphthylamine (NPN) uptake assay, using intact cells of E. coli. […] Since NPN is hydrophobic, it provides a direct measurement of the degree of outer membrane permeability. E. coli take up little or no NPN in a general condition. […] Fluorescence would vary with the concentration of peptide. The steps of the embodiment were described as follow. One ml of overnight culture was used to inoculate 50 ml of media and incubated at 37° C. with shaking. The culture was permitted to grow to an OD600 of 0.4 to 0.6, cells were spun down at 3500 rpm for 10 minutes, washed, and re-suspended in buffer to an OD600 of 0.5. The OD600 was recorded, 1 ml of cells (OD600=0.5) was added to the cuvette and measured after 2-5 seconds. 20 μl NPN 0.5 mM, shaken to mix, was added and measured after 2-5 seconds. 10 ul antibiotic 100× desired final concentration was added, shaken to mix, and measured until the maximal value was reached within 1 to 5 minutes. The concentration of peptide leading to 50% of the maximum increase in NPN uptake was recorded as the P50. As results shown in table 4, all of the peptides were capable of interacting with membrane.

Bacillus cereus = test system: Bacillus cereus
Source text: (§3) The MIC values against various strains are shown in table 3, Pem-2251 L and Pem-2254 L have great microbial activity as well.

Bacillus pumilus = test system: Bacillus pumilus
Source text: as §3

E. coli = test system: E. coli
Source text: as §3

Bacillus substilis = test system: Bacillus substilis
Source text: as §3

Pseudomonas aeruginosa = test system: Pseudomonas aeruginosa
Source text: as §3

[5] = test system: Staphylococcus epidermidis
Source text: as §3

Staphylococcus aureus = test system: Staphylococcus aureus
Source text: as §3

[6] = S. aureus ATCC 29213, MHB, 18 hours at 37° C., mean of three
[7] = E. coli ATCC 25922, MHB, 18 hours at 37° C., mean of three
[8] = P. aeruginosa ATCC 27853, MHB, 18 hours at 37° C., mean of three

Molecule | MIC ([2]; ATCC 29213, 18 h) | MIC (E. coli (ATCC 25922); ATCC 25922, 18 h) | MIC ([3]; ATCC 27853, 18 h) | MIC [2, 6] | MIC (E. coli (ATCC 25922); [7]) | MIC [3, 8] | other results
CC[C@H](C)[C@H](NC(=O)CN)C(=O)NCC(=O)N[C@@H](C)C(=O)N[C@H](C(=O)N[C@@H](CC(C)C)C(=O)N[C@@H](CCCCN)C(=O)N[C@H](C(=O)N[C@@H](CC(C)C)C(=O)N[C@H](C(=O)N[C@H](C(=O)NCC(=O)N[C@@H](CC(C)C)C(=O)N1CCC[C@H]1C(=O)N[C@@H](C)C(=O)N[C@@H](CC(C)C)C(=O)N[C@H](C(=O)N[C@@H](CO)C(=O)N[C@@H](Cc1c[nH]c2ccccc12)C(=O)N[C@H](C(=O)N[C@@H](CCCCN)C(=O)N[C@@H](CCCNC(=N)N)C(=O)N[C@@H](CCCCN)C(=O)N[C@@H](CCCNC(=N)N)C(=O)N[C@@H](CCC(N)=O)C(=O)N[C@@H](CCC(N)=O)C(N)=O)[C@@H](C)CC)[C@@H](C)CC)[C@@H](C)O)[C@@H](C)O)C(C)C)C(C)C [Melittin, reference compound] |  |  |  |  |  |  | lysis percentage ([1]; 5 μg/ml peptide): 50%; lysis percentage ([1]; 50 μg/ml peptide): 100%; lysis percentage ([1]; 400 μg/ml peptide): 100%
KFKRWLA-NH2 [Pem-1001 L, Lys Phe Lys Arg Trp Leu Ala] | 50 µg/mL | 50 µg/mL | 50 µg/mL |  |  |  | P50 (concentration of peptide leading to 50% of the maximum increase in NPN uptake) [4]: 6.25 µg/mL
KKFRRFVRFIAKK-NH2 [Pem-2253 L, Lys Lys Phe Arg Arg Phe Val Arg Phe Ile Ala Lys Lys] | 12.5 µg/mL | 12.5 µg/mL | 12.5 µg/mL |  |  |  | 
KKWRAWLKWLAKK-NH2 [Pem-2251 L, Lys Lys Trp Arg Ala Trp Leu Lys Trp Leu Ala Lys Lys] | 12.5 µg/mL | 1.565 µg/mL | 6.25 µg/mL |  |  |  | MIC (Bacillus cereus): 6.25 µg/mL; MIC (Bacillus pumilus): 6.25 µg/mL; MIC (E. coli): 3.125 µg/mL; MIC (Bacillus substilis): 3.125 µg/mL; MIC (Pseudomonas aeruginosa): 6.25 µg/mL; MIC [5]: 3.125 µg/mL; MIC (Staphylococcus aureus): 3.125 µg/mL; P50 (concentration of peptide leading to 50% of the maximum increase in NPN uptake) [4]: 6.25 µg/mL
KKWRKWLKWLAKK-NH2 [Pem-2254 L, Lys Lys Trp Arg Lys Trp Leu Lys Trp Leu Ala Lys Lys] |  | 1.565 µg/mL | 1.565 µg/mL |  |  |  | MIC (Bacillus cereus): 6.25 µg/mL; MIC (Bacillus pumilus): 3.125 µg/mL; MIC (E. coli): 1.565 µg/mL; MIC (Bacillus substilis): 3.125 µg/mL; MIC (Pseudomonas aeruginosa): 3.125 µg/mL; MIC [5]: 1.565 µg/mL; MIC (Staphylococcus aureus): 1.565 µg/mL; lysis percentage ([1]; 5 μg/ml peptide): 0.45%; lysis percentage ([1]; 50 μg/ml peptide): 1.52%; lysis percentage ([1]; 400 μg/ml peptide): 16.35%
KKWRKWLRAIAKK-NH2 [Pem-2252 L, Lys Lys Trp Arg Lys Trp Leu Arg Ala Ile Ala Lys Lys] | 25 µg/mL | 25 µg/mL | 25 µg/mL |  |  |  | lysis percentage ([1]; 5 μg/ml peptide): 3.12%; lysis percentage ([1]; 5 μg/ml peptide, listed as Pem-2252): 0.45%; lysis percentage ([1]; 50 μg/ml peptide): 9.82%; lysis percentage ([1]; 50 μg/ml peptide, listed as Pem-2252): 1.52%; lysis percentage ([1]; 400 μg/ml peptide): 37.66%; lysis percentage ([1]; 400 μg/ml peptide, listed as Pem-2252): 16.35%; hemolytic activity against hRBC, in words ([1]; compared with other antimicrobial peptides): less hemolytic against hRBC than other antimicrobial peptides
KWKIWLK-NH2 [Pem-1003 L, Lys Trp Lys Ile Trp Leu Lys] | 12.5 µg/mL | 25 µg/mL | 12.5 µg/mL |  |  |  | 
Lys Lys Phe Arg Arg Phe Val Arg Phe Ile Ala Lys Lys (KKFRRFVRFIAKK; not fully specified (bridges); printed as Lys Lys Phe Arg Arg Phe Val Arg Phe Ile Ala Lys Lys; also: cyclic topology, ring type not given here) [Pem-2253 C] |  |  |  | 50 µg/mL | 50 µg/mL | 50 µg/mL | 
Lys Lys Trp Arg Ala Trp Leu Lys Trp Leu Ala Lys Lys (KKWRAWLKWLAKK; not fully specified (bridges); printed as Lys Lys Trp Arg Ala Trp Leu Lys Trp Leu Ala Lys Lys; also: cyclic topology, ring type not given here) [Pem-2251 C] |  |  |  | 50 µg/mL | 25 µg/mL | 25 µg/mL | 
Lys Lys Trp Arg Lys Trp Leu Arg Ala Ile Ala Lys Lys (KKWRKWLRAIAKK; not fully specified (bridges); printed as Lys Lys Trp Arg Lys Trp Leu Arg Ala Ile Ala Lys Lys; also: cyclic topology, ring type not given here) [Pem-2252 C] |  |  |  | >50 µg/mL | >50 µg/mL | >50 µg/mL | 
Lys Lys Trp Arg Lys Trp Leu Lys Trp Leu Ala Lys Lys (KKWRKWLKWLAKK; not fully specified (bridges); printed as Lys Lys Trp Arg Lys Trp Leu Lys Trp Leu Ala Lys Lys; also: cyclic topology, ring type not given here) [Pem-2254 C] |  |  |  | 50 µg/mL | 25 µg/mL | 25 µg/mL | 
Lys Phe Arg Ala Trp Val Arg (KFRAWVR; not fully specified (bridges); printed as Lys Phe Arg Ala Trp Val Arg; also: cyclic topology, ring type not given here) [Pem-1002 C] |  |  |  | >50 µg/mL | >50 µg/mL | >50 µg/mL | 
Lys Phe Lys Arg Trp Leu Ala (KFKRWLA; not fully specified (bridges); printed as Lys Phe Lys Arg Trp Leu Ala; also: cyclic topology, ring type not given here) [Pem-1001 C] |  |  |  | >50 µg/mL | >50 µg/mL | >50 µg/mL | 
